The values that follow are results of earlier work, collected in patent EP4605403B1, “METHOD AND COMPOSITION FOR OLIGONUCLEOTIDE SYNTHESIS” (Bachem Holding AG, priority 2022, dated 2024).

For the series the following is noted: protonated form of the base; in water at 25 °C; from A. Fischer et al., J. Chem. Soc. 1964, 3591-3596.

Take `Nc1ccncc1` [4-aminopyridine]: the pKa-value is recorded as 9.1.
